Measurements from ChEMBL document CHEMBL1124209, “Phosphonoformate and phosphonoacetate derivatives of 5-substituted 2'-deoxyuridines: synthesis and antiviral activity” (1988).
Converted amounts (≈) assume the structure as drawn.

Columns and labels:
Format in all cases: functional
[1] = tested on: Human alphaherpesvirus 1; experiment: Minimum inhibitory concentration causing 25% inhibition of cytopathic effect induced by Herpes simplex virus-1 (K979) in HEp-2 cells
[2] = tested on: Human alphaherpesvirus 1; experiment: Minimum inhibitory concentration causing 25% inhibition of cytopathic effect induced by herpes simplex virus (HSV)-1 (K979) in vero cells.
[3] = tested on: Human alphaherpesvirus 1; experiment: Minimum inhibitory concentration causing 25% inhibition of cytopathic effect induced by Herpes simplex virus-1 (Brand) in vero cells
[4] = tested on: Human alphaherpesvirus 1; experiment: Minimum inhibitory concentration causing 25% inhibition cytopathic effect induced by Herpes simplex virus-1 (Brand) in HEp-2 cells
[5] = tested on: Human alphaherpesvirus 1; experiment: Mean survival time in HSV-1 infected mice, after intraperitoneal administration of 0.5 mg/kg of compound
[6] = tested on: Human alphaherpesvirus 1; experiment: Mean survival time in HSV-1 infected mice, after intraperitoneal administration of 1 mg/kg of compound
[7] = tested on: Human alphaherpesvirus 1; experiment: Mean survival time in HSV-1 infected mice, after intraperitoneal administration of 5 mg/kg of compound
[8] = tested on: Human alphaherpesvirus 1; experiment: Mean survival time in HSV-1 infected mice, after peroral administration of 10 mg/kg of compound; conditions: route oral
[9] = tested on: Human alphaherpesvirus 1; experiment: Mean survival time in HSV-1 infected mice, after peroral administration of 1 mg/kg of compound; conditions: route oral
[10] = tested on: Human alphaherpesvirus 1; experiment: Mean survival time in HSV-1 infected mice, after peroral administration of 5 mg/kg of compound; conditions: route oral
[11] = tested on: Human alphaherpesvirus 1; experiment: Cumulative mortality in percent of HSV-1 infected mice, after intraperitoneal administration of 0.5 mg/kg of compound
[12] = tested on: Human alphaherpesvirus 1; experiment: Cumulative mortality in percent of HSV-1 infected mice, after intraperitoneal administration of 1 mg/kg of compound
[13] = tested on: Human alphaherpesvirus 1; experiment: Cumulative mortality in percent of HSV-1 infected mice, after intraperitoneal administration of 5 mg/kg of compound
[14] = tested on: Human alphaherpesvirus 1; experiment: Cumulative mortality in percent of HSV-1 infected mice, after peroral administration of 1 mg/kg of compound; conditions: route oral
[15] = tested on: Human alphaherpesvirus 1; experiment: Cumulative mortality in percent of HSV-1 infected mice, after peroral administration of 5 mg/kg of compound; conditions: route oral
[16] = tested on: Human alphaherpesvirus 1; experiment: Cumulative mortality in percent of HSV-1 infected mice, after peroral administration of 10 mg/kg of compound; conditions: route oral
[17] = species: Oryctolagus cuniculus; experiment: Minimum cytotoxic concentration causing toxic effects on uninfected cells in rabbit
[18] = tested on: Human alphaherpesvirus 2; experiment: Minimum inhibitory concentration causing 25% inhibition cytopathic effect induced by Herpes simplex virus(HSV) -2 (thymidine kinase deficient) in vero cells
[19] = tested on: Human alphaherpesvirus 1; experiment: Minimum inhibitory concentration causing 25% inhibition of cytopathic effect induced by Herpes simplex virus(HSV) -1 (thymidine kinase deficient) in HEp-2 cells
[20] = tested on: Human alphaherpesvirus 1; experiment: Minimum inhibitory concentration causing 25% inhibition of cytopathic effect induced by Herpes simplex virus(HSV) -1 (thymidine kinase deficient) in vero cells
[21] = tested on: Human alphaherpesvirus 2; experiment: Minimum inhibitory concentration causing 25% inhibition of cytopathic effect induced by Herpes simplex virus(HSV) -2 (thymidine kinase deficient) in HEp-2 cells
[22] = tested on: Mus musculus; experiment: Cumulative lesions in HSV-1 infected mice, after administration of 0.1 % of compound intracutaneously
[23] = tested on: Mus musculus; experiment: Mean duration of lesions in HSV-1 infected mice, after administration of 0.1 % of compound intracutaneously
[24] = tested on: Human alphaherpesvirus 2; experiment: Minimum inhibitory concentration causing 25% inhibition of cytopathic effect induced by Herpes simplex virus(HSV) -2 (thymidine kinase deficient) in vero cells

| Compound | MIC [1] [µM] | MIC [2] [µM] | MIC [3] [µM] | MIC [4] [µM] | MST [5] [days] | MST [6] [days] | MST [7] [days] | MST [8] [days] | MST [9] [days] | MST [10] [days] | CMP [11] | CMP [12] | CMP [13] | CMP [14] | CMP [15] | CMP [16] | MTC [17] | MIC [19] [µM] | MIC [20] [µM] | MIC [21] [µM] | further results |
| --- | --- | --- | --- | --- | --- | --- | --- | --- | --- | --- | --- | --- | --- | --- | --- | --- | --- | --- | --- | --- | --- |
| CCOC(=O)CP(=O)(O)OC[C@H]1O[C@@H](n2cc(CCCl)c(=O)[nH]c2=O)C[C@@H]1O | > 227 | > 227 | > 227 | > 227 | 12.2 | 11.3 | 15.5 | 15.9 | 11.9 | 13.6 | 75 | 83 | 42 | 83 | 58 | 42 | 749 µM | – | – | – | – |
| CCOC(=O)CP(=O)(OC)OC[C@H]1O[C@@H](n2ccc(=O)[nH]c2=O)C[C@@H]1O (stereo not given in full) | > 255 | > 255 | > 255 | > 255 | – | – | – | – | – | – | – | – | – | – | – | – | >=842 uM | – | – | – | – |
| COP(=O)(CC(=O)OC[C@H]1O[C@@H](n2cc(C)c(=O)[nH]c2=O)C[C@@H]1O)OC | > 255 | > 255 | > 255 | > 255 | – | – | – | – | – | – | – | – | – | – | – | – | >=842 uM | – | – | – | – |
| COP(=O)(CC(=O)OC[C@H]1O[C@@H](n2cc(CCCl)c(=O)[nH]c2=O)C[C@@H]1O)OC | > 227 | > 227 | 6.8 (≈ 3 µg/mL) | 6.8 (≈ 3 µg/mL) | 13.3 | 13 | 19.2 | 12.2 | 13.5 | 11.2 | 67 | 75 | 8 | 58 | 83 | 75 | 749 µM | > 227 | 227 (≈ 100 µg/mL) | > 227 | MIC [18]: > 227 µM |
| CCOC(=O)P(=O)(O)O[C@H]1C[C@H](n2cc(CCCl)c(=O)[nH]c2=O)O[C@@H]1CO | > 234 | > 234 | 234 (≈ 99.9 µg/mL) | > 234 | 11.5 | 15.6 | 18.9 | 11.8 | 11.3 | 11.9 | 83 | 42 | 8 | 83 | 75 | 75 | >=773 uM | – | – | – | lesions [22]: 90; MDL [23]: 9.7 days |
| COC(=O)P(=O)(O)O[C@H]1C[C@H](n2cc(CCCl)c(=O)[nH]c2=O)O[C@@H]1CO | > 242 | > 242 | > 242 | > 242 | – | – | – | – | – | – | – | – | – | – | – | – | >=800 uM | – | – | – | – |
| O=C(OCc1ccccc1)P(=O)(O)OC[C@H]1O[C@@H](n2cc(CCCl)c(=O)[nH]c2=O)C[C@@H]1O | > 205 | > 205 | 20.5 (≈ 10 µg/mL) | 20.5 (≈ 10 µg/mL) | 13.8 | 16.3 | 19.3 | 16.8 | 12.7 | 14.3 | 67 | 33 | 8 | 67 | 50 | 33 | 675 µM | > 205 | 20.5 (≈ 10 µg/mL) | > 205 | MIC [24]: 205 µM (≈ 100 µg/mL); lesions [22]: 100; MDL [23]: 8.1 days |
| CCOC(=O)P(=O)(O)OC[C@H]1O[C@@H](n2cc(CCCl)c(=O)[nH]c2=O)C[C@@H]1O | 234 (≈ 99.9 µg/mL) | > 234 | 23.4 (≈ 9.99 µg/mL) | 23.4 (≈ 9.99 µg/mL) | 13.8 | 16.5 | 20 | 15.3 | 10.1 | 11.9 | 58 | 33 | 0 | 92 | 75 | 50 | >=773 uM | > 234 | 70.3 (≈ 30 µg/mL) | > 234 | MIC [24]: 234 µM (≈ 99.9 µg/mL); lesions [22]: 80; MDL [23]: 6.7 days |
| O=C(O)CP(=O)(O)OC[C@H]1O[C@@H](n2cc(CCCl)c(=O)[nH]c2=O)C[C@@H]1O | 69.6 (≈ 28.7 µg/mL) | 232 (≈ 95.8 µg/mL) | 2.3 (≈ 0.949 µg/mL) | 2.3 (≈ 0.949 µg/mL) | 14.2 | 14.1 | 17.3 | 15.3 | 8.6 | 11.2 | 50 | 58 | 25 | 100 | 92 | 50 | 766 µM | 23.2 (≈ 9.58 µg/mL) | 23.2 (≈ 9.58 µg/mL) | 232 (≈ 95.8 µg/mL) | MIC [18]: > 232 µM; lesions [22]: 60; MDL [23]: 5.3 days |
| CC(C)(C)OC(=O)CP(=O)(O)OC[C@H]1O[C@@H](n2cc(CCCl)c(=O)[nH]c2=O)C[C@@H]1O | > 213 | > 213 | > 213 | > 213 | 12.9 | 12.8 | 15.4 | 13.3 | 11.5 | 11.3 | 67 | 67 | 50 | 83 | 83 | 58 | >=704 uM | – | – | – | – |
| COC(=O)P(=O)(O)OC[C@H]1O[C@@H](n2cc(CCCl)c(=O)[nH]c2=O)C[C@@H]1O | 242 (≈ 99.9 µg/mL) | > 242 | 24.2 (≈ 9.99 µg/mL) | 24.2 (≈ 9.99 µg/mL) | 11.8 | 14.1 | 16.3 | 13.7 | 12.6 | 12.7 | 75 | 58 | 33 | 75 | 67 | 75 | >=800 uM | > 242 | 242 (≈ 99.9 µg/mL) | > 242 | MIC [24]: > 242 µM |
| CCOC(=O)CP(=O)(O)O[C@H]1C[C@H](n2cc(CCCl)c(=O)[nH]c2=O)O[C@@H]1CO | > 227 | > 227 | > 227 | > 227 | – | – | – | – | – | – | – | – | – | – | – | – | 749 µM | – | – | – | lesions [22]: 80; MDL [23]: 9.4 days |
| COP(=O)(CC(=O)O[C@H]1C[C@H](n2cc(CCCl)c(=O)[nH]c2=O)O[C@@H]1CO)OC | 6.8 (≈ 3 µg/mL) | 22.7 (≈ 10 µg/mL) | 0.7 (≈ 0.309 µg/mL) | 68.1 (≈ 30 µg/mL) | – | – | – | – | – | – | – | – | – | – | – | – | 227 µM | > 227 | 227 (≈ 100 µg/mL) | > 227 | MIC [24]: 227 µM (≈ 100 µg/mL) |
| CCOC(=O)P(=O)(Nc1ccccc1)OC[C@H]1O[C@@H](n2cc(CCCl)c(=O)[nH]c2=O)C[C@@H]1O (stereo not given in full) | 59.8 (≈ 30 µg/mL) | > 199 | 2 (≈ 1 µg/mL) | 2 (≈ 1 µg/mL) | 13.1 | 13.9 | 18 | 17.8 | 11.4 | 15.4 | 75 | 67 | 25 | 100 | 50 | 25 | 658 µM | > 199 | 59.8 (≈ 30 µg/mL) | > 199 | MIC [24]: 199 µM (≈ 99.9 µg/mL) |
| O=C(CP(=O)(O)O)O[C@H]1C[C@H](n2cc(CCCl)c(=O)[nH]c2=O)O[C@@H]1CO | 72.7 (≈ 30 µg/mL) | 242 (≈ 99.9 µg/mL) | 24.2 (≈ 9.99 µg/mL) | 72.7 (≈ 30 µg/mL) | – | – | – | – | – | – | – | – | – | – | – | – | 800 µM | > 242 | 242 (≈ 99.9 µg/mL) | > 242 | MIC [18]: > 242 µM |
| CCOC(=O)CP(=O)(OC)OC[C@H]1O[C@@H](n2cc(C)c(=O)[nH]c2=O)C[C@@H]1O (stereo not given in full) | > 246 | > 246 | > 246 | > 246 | – | – | – | – | – | – | – | – | – | – | – | – | >=812 uM | – | – | – | – |
| CCOC(=O)P(=O)(OC)OC[C@H]1O[C@@H](n2cc(C)c(=O)[nH]c2=O)C[C@@H]1O (stereo not given in full) | > 255 | > 255 | > 255 | > 255 | – | – | – | – | – | – | – | – | – | – | – | – | >=842 uM | – | – | – | – |
| CCOC(=O)P(=O)(OC)OC[C@H]1O[C@@H](n2ccc(=O)[nH]c2=O)C[C@@H]1O (stereo not given in full) | > 264 | > 264 | > 264 | > 264 | – | – | – | – | – | – | – | – | – | – | – | – | >=872 uM | – | – | – | – |
